Laboratory results from patent publication US20030040515A1, “Regulation of platelet adhesion and aggregation” (priority 2002, published 2003).
Where two headings read alike, the source gives them in different places. Non-standard residues stand in square brackets, D forms with d. Residues, ends and D or L forms follow the SMILES beside them. *: point of attachment. Sta = CC(C)C[C@H](N)[C@@H](O)CC(=O)O; Isovaleryl = CC(C)CC(=O)*

How the values were obtained:
[1] = tested on: vWF depolymerizing activity of BAECcm; experiment: Inhibitor profile of the vWF depolymerizing activity of BAEC conditioned medium; type: biochemical
[2] = target: T1, purified vWF (Homo sapiens, UniProt P04275); experiment: MPB labelling assay for reduction of vWF disulfide bond(s) / formation of new thiols in vWF; type: biochemical; parameters: Purified vWF from human plasma was obtained from the Baker Medical Research Institute; tissue Baker Medical Research Institute, Melbourne (vWF); host or cells: human plasma (vWF); human platelet concentrates (TSP-1); settings: chelation of Ca2+ in the reactions
Protocol: The biotin-linked maleimide, MPB, was used to measure reduction of vWF disulfide bond(s) in BAECcm. […] Free thiol(s) formed in vWF by reduction of disulfide bonds bond(s) were labelled with MPB (100 μM) and the unreacted MPB was quenched with GSH (200 μM). N-ethylmaleimide reacts rapidly with free thiols with a second order rate constant of ˜10^4 M^−1s^−1 at pH 8 (Torchinski and Dixon, 1974). Therefore, the half life for reaction of free thiols in vWF with the maleimide moiety of MPB was anticipated to be in the order of a few seconds. Aliquots of the reactions containing MPB-labelled vWF were incubated in ELISA plate wells coated with anti-vWF polyclonal antibodies. The adsorbed vWF was incubated with streptavidin peroxidase to measure the incorporated MPB. The control for vWF labelling was incubation and labelling of BAECcm alone, prior to addition of vWF. This reaction represented the contribution to the assay of MPB labelling of endogenous vWF and/or other vWF binding proteins in the BAECcm. […]
Reduction of disulfide bonds in vWF was anticipated to result in a net increase in free thiols in the vWF population. […] The MPB-labeled vWF was incubated in ELISA plate wells coated with anti-human vWF polyclonal antibodies and the biotin label was detected using StreptABComplex/HRP (DAKO Corporation, Carpinteria, Calif.).

[3] = target: T2, vWF (Homo sapiens, UniProt P04275); experiment: Reduction in average multimer size of vWF in TTP plasma (agarose gel, collagen binding/vWF antigen); type: biochemical; settings: chelation of Ca2+
T2 construct: from tissue; host or cells: plasma of a TTP patient (vWF); human platelet concentrates (TSP-1)
Protocol: TTP plasma was incubated with 20 mM Hepes, 0.14M NaCl, 1 mM CaCl2, 1 mM MgCl2, pH 7.4 buffer, conditioned media of HMEC-1 cells or the Hepes buffer containing TSP-1 for 1 or 24 hours at 37° C. Aliquots of the reactions were diluted 10-fold in the Hepes buffer and assayed for collagen binding affinity and vWF antigen as described by Favaloro et al. (1991). On some occasions, aliquots of the reactions were resolved on 1% agarose gel electrophoresis (Ruggeri and Zimmerman, 1980), transferred to PVDF membrane (DuPont NEN, Boston, Mass.), blotted with 2 μg per ml of horse radish peroxidase conjugated anti-vWF polyclonal antibodies (DAKO Corporation, Carpinteria, Calif.) and visualized using chemiluminescence (DuPont NEN, Boston, Mass.).
TSP-1 is a major component of platelet α-granules which is secreted upon platelet activation and aggregation. TSP-1 was purified to homogeneity from pooled outdated human platelet concentrates (Murphy-Ullrich and Mosher. 1985; Hogg et al., 1997) and tested for vWF reductase activity. Buffers containing 0.1 mM CaCl2 were used throughout the chromatographic purification of TSP1. […] In particular, the very large multimers were lost (see bracket in FIG. 3A). […] TSP-1-mediated reduction in vWF multimer size was concentration- and time-dependent (FIG. 3B). Three different preparations of platelet TSP-1 had the same vWF reducing activity (not shown). It is noteworthy that the molar ratio of TSP-1 to vWF influenced the extent of reduction in vWF multimer size (FIG. 3B). The vWF reductase activity in endothelial cell conditioned medium is inhibited by EDTA. In accordance with this observation, chelation of Ca^2+ with EDTA ablated the vWF reductase activity of TSP-1 (not shown).

[4] = target: T1, purified vWF; experiment: Effect of purified reductants or thiol reagents on the average multimer size of purified vWF (agarose gel electrophoresis); type: biochemical; parameters: Purified vWF from human plasma was obtained from the Baker Medical Research Institute; tissue Baker Medical Research Institute, Melbourne; host or cells: human plasma; settings: for effect on average multimer size of purified vWF: GSH 20 μM, PDI 10 nM, thioredoxin 10 nM, 24 hours at 37° C.
[5] = target: T1, purified vWF; experiment: Effect of purified reductants on affinity of purified vWF for collagen; type: biochemical; settings: 24 hours at 37° C.; for effect on vWF collagen affinity: PDI at 10 nM
Protocol: Confluent HUVEC's were washed with M199 without FCS and incubated in M199 for up to 8.5 hours. The HUVECS were stimulated to release vWF by adding […] human α-thrombin after 0.5 hours. The thrombin was quenched after 2 hours incubation by adding 5 mM D-Phe-Pro-Arg-chloromethyl ketone. Samples of the conditioned medium were collected at discrete time intervals and analyzed for vWF by 1% agarose gel electrophoresis and Western blotting or vWF antigen levels and collagen binding affinity (not shown). vWF antigen levels were determined using ELISA by capturing the vWF with adsorbed anti-vWF polyclonal antibodies and detecting using peroxidase conjugated anti-vWF polyclonal antibodies (Favoloro et al., 1991). Collagen binding affinity was assessed by incubating the vWF in plastic wells coated with type I/III collagen for 1 hour and measuring the bound vWF using peroxidase conjugated anti-vWF antibodies (Favoloro et al., 1991). Large vWF multimers bind to collagen with up to ˜100-fold higher affinity than smaller multimers, therefore affinity for collagen is a useful indicator of average vWF multimer size.
The effect of incubation of purified vWF with GSH, PDI, or GSH and PDI, for 24 hours at 37° C. on the affinity of vWF for collagen was analysed. […] The half-maximal effect of GSH on vWF collagen affinity was ˜20 μM. […] The half-maximal effect of GSH in the presence on PDI on vWF collagen affinity was similar to that of GSH alone, ˜20 μM.

[6] = target: plasma vWF (Homo sapiens, UniProt P04275); settings: GSH 20 μM added to BAECcm
Protocol: To test whether exogenous GSH could augment vWF depolymerization by BAECcm, plasma vWF was incubated with BAECcm, or BAECcm and GSH (20 μM), and multimer size measured by either agarose gel electrophoresis or collagen binding.

[7] = measured by agarose gel electrophoresis or collagen binding, BAECcm treated with agent

NCCc1ccc(S(=O)(=O)F)cc1 [4-(2-aminoethyl)benzenesulfonylfluoride]
effect on vWF depolymerizing activity of BAECcm [1, 7]: not inhibited

CC(C)C[C@H](NC(=O)[C@H]1O[C@@H]1C(=O)O)C(=O)NCCCCN=C(N)N [E-64]
effect on vWF depolymerizing activity of BAECcm [1, 7]: inactivated

O=C(O)CN(CCN(CC(=O)O)CC(=O)O)CC(=O)O [EDTA]
effect on TSP-1-catalysed formation of free thiols in vWF [2]: ablated | effect on vWF reductase activity of TSP-1 [3]: ablated | effect on vWF depolymerizing activity of BAECcm [1]: ablated activity

N[C@@H](CCC(=O)N[C@@H](CS)C(=O)NCC(=O)O)C(=O)O [GSH, reduced glutathione]
effect on average multimer size of purified vWF [4]: reduction of the average multimer size of vWF | effect on vWF collagen affinity [5]: reduced the collagen affinity of vWF | EC50 ([5]; GSH alone, read-out: half-maximal effect on vWF collagen affinity): ~20 µM | EC50 ([5]; GSH in the presence of PDI, read-out: half-maximal effect on vWF collagen affinity in the presence of PDI): ~20 µM | vWF depolymerization over that by BAECcm alone ([6]; agarose gel electrophoresis): small increase | collagen affinity of vWF ([6]; p<0.05): significant reduction

NC(=O)CI [IAM, iodoacetamide]
effect on average multimer size of vWF ([4]; incubation of vWF with IAM or NEM alone): did not have any discernible effect | effect on vWF depolymerizing activity of BAECcm [1, 7]: inactivated

CC(C)C[C@H](NC(=O)[C@@H](NC(=O)N[C@@H](Cc1ccccc1)C(=O)O)[C@@H]1CCN=C(N)N1)C(=O)N[C@H](C=O)Cc1ccccc1 [chymostatin]
effect on vWF depolymerizing activity of BAECcm [1, 7]: not inhibited

CC(=O)N[C@@H](CC(C)C)C(=O)N[C@@H](CC(C)C)C(=O)N[C@H](C=O)CCCNC(=N)N [leupeptin]
effect on vWF depolymerizing activity of BAECcm [1, 7]: not inhibited

CC(C)CC(=O)N[C@H](C(=O)N[C@H](C(=O)N[C@@H](CC(C)C)[C@@H](O)CC(=O)N[C@@H](C)C(=O)N[C@@H](CC(C)C)[C@@H](O)CC(=O)O)C(C)C)C(C)C [pepstatin] (Isovaleryl-VV[Sta]A[Sta]-OH)
effect on vWF depolymerizing activity of BAECcm [1, 7]: not inhibited

CC(C)C[C@H](NP(=O)(O)O[C@@H]1O[C@@H](C)[C@H](O)[C@@H](O)[C@H]1O)C(=O)N[C@@H](Cc1c[nH]c2ccccc12)C(=O)O [phosphoramidon]
effect on vWF depolymerizing activity of BAECcm [1, 7]: not inhibited

PDI: purified reductant
effect on average multimer size of purified vWF [4]: reduction of the average multimer size of vWF | effect on vWF collagen affinity [5]: reduced vWF collagen affinity to the same extent as 20 μM GSH

aprotinin
effect on vWF depolymerizing activity of BAECcm [1, 7]: not inhibited

thioredoxin
effect on average multimer size of purified vWF [4]: reduction of the average multimer size of vWF
